Test results: patent US5153128A, “Heat-resistant β-galactosyltransferase, its production process and its use” (Suntory Limited, priority 1990, dated 1992)

Molecular target: T1, heat-resistant β-galactosyltransferase produced by Saccharopolyspora rectivirgula SAM 1400 (Saccharopolyspora rectivirgula, UniProt Q9ZBD1)
T1 construct: about 140 kDa by gel filtration
Assay: Inhibitors: residual activity of the enzyme in the presence of compounds (Table 3)
Type: biochemical
Settings: enzyme in presence of the compound; compound concentration not given

T1 sequence (Q9ZBD1 entry or part of it, change not shown): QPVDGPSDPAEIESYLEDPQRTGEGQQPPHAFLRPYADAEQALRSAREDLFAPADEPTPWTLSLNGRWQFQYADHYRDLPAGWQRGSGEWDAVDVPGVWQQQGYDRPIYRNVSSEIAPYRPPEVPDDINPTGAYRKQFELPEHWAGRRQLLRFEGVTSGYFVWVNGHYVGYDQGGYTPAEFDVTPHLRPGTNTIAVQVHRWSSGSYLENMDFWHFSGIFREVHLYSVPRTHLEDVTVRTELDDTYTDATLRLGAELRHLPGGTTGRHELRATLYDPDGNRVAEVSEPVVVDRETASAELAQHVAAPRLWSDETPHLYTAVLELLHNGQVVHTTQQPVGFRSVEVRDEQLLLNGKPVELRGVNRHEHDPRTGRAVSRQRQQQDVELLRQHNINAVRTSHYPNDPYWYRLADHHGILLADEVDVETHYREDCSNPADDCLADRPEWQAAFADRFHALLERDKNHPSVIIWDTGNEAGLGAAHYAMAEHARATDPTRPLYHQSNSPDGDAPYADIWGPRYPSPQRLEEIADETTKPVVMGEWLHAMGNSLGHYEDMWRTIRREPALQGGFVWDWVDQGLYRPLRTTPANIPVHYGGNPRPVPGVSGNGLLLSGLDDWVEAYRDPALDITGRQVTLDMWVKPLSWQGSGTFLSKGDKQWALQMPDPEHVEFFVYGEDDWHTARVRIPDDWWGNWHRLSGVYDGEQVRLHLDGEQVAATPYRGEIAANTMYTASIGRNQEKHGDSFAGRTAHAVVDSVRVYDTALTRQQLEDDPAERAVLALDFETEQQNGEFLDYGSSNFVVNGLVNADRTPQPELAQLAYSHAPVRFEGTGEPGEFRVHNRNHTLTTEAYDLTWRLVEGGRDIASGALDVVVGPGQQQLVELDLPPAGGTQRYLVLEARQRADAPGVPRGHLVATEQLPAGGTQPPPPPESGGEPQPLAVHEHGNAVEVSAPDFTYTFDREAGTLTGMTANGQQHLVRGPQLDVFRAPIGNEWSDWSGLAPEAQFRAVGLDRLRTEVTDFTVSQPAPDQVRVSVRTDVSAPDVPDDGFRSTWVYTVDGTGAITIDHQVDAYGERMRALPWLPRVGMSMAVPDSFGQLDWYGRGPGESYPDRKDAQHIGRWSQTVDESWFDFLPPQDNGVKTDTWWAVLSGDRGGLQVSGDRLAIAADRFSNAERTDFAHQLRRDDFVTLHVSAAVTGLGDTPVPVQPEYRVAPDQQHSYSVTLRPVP

OCCS [2-Mercaptoethanol]
Residual activity: 96%
